According to patent publication US12606552B2, “Bifunctional compound, preparation method therefor, and use thereof” (SUZHOU KINTOR PHARMACEUTICALS, INC., priority 2020, dated 2026):

Target: T1, AR (Homo sapiens, UniProt P10275, T878A)
T1 sequence (P10275 1-920 T878A): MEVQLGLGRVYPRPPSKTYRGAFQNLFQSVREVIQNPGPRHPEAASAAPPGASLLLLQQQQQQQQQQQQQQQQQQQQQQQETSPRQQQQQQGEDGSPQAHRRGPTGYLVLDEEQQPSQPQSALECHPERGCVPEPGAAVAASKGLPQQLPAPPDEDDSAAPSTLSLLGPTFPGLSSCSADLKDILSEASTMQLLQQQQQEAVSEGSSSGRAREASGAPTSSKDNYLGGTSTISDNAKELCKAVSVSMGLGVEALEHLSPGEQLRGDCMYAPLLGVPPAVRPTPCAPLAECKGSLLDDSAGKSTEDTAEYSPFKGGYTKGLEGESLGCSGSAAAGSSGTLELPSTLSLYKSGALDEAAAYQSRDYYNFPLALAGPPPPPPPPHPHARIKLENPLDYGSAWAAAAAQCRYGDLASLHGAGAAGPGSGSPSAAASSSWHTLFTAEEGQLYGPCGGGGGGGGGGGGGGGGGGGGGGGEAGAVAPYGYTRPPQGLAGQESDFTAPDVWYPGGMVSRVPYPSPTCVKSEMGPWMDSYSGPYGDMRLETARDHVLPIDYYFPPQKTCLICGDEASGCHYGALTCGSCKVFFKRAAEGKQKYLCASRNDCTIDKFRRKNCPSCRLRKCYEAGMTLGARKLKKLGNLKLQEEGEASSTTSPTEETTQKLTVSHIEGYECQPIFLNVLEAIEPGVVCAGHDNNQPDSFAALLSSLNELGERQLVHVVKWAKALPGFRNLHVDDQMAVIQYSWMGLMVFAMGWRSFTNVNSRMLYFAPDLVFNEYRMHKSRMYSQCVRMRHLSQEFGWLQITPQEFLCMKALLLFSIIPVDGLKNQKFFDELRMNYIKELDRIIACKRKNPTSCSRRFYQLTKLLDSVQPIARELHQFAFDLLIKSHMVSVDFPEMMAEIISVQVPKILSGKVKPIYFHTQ
Test: Effects of compounds on AR expression in LNCaP cells (ELISA, DC50)
Assay type: cell-based
Design: Measurement of the Effects of Drugs on the Expression of AR in Cells by ELISA Method; endogenous in cells; host or cells: LNCaP
Conditions: 24 hours of drug treatment, AR by ELISA
Procedure, shortened: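 LNCaP cells at about 15,000/well were treated for 24 h with compound at 0.0001–2 μmol/L final. AR in cell lysates was measured by ELISA (OD450). Inhibition was relative to DMSO control after blank subtraction, and DC50 was calculated from it.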

Structure (SMILES) | DC50
Cc1ncsc1-c1c[nH]c([C@@H]2C[C@@H](O)CN2C(=O)[C@@H](NC(=O)COCCCCOc2ccc(-c3ncc(N4C(=S)N(c5ccc(C#N)c(C(F)(F)F)c5F)C(=O)C4(C)C)cc3F)cc2F)C(C)(C)C)n1 [Compound A160] | 151 nM
Cc1ncsc1-c1ccc(CNC(=O)[C@@H]2C[C@@H](O)CN2C(=O)[C@@H](NC(=O)COCC(F)(F)CCOc2ccc(-c3ncc(N4C(=S)N(c5ccc(C#N)c(C(F)(F)F)c5F)C(=O)C4(C)C)cc3F)cc2F)C(C)(C)C)cc1 [Compound A162] | 186 nM
Cc1ncsc1-c1ccc(CNC(=O)[C@@H]2C[C@@H](O)CN2C(=O)[C@@H](NC(=O)COCCC(F)(F)COc2ccc(-c3ncc(N4C(=S)N(c5ccc(C#N)c(C(F)(F)F)c5F)C(=O)C4(C)C)cc3F)cc2F)C(C)(C)C)cc1 [Compound A163] | 171 nM
Cc1ncsc1-c1c[nH]c([C@@H]2C[C@@H](O)CN2C(=O)[C@@H](NC(=O)COCCCCOc2ccc(-c3ncc(N4C(=S)N(c5ccc(C#N)c(C(F)(F)F)c5F)C(=O)C4(C)C)cc3F)c(C(F)(F)F)c2)C(C)(C)C)n1 [Compound A165] | 43.8 nM
Cc1ncsc1-c1ccc(CNC(=O)[C@@H]2C[C@@H](O)CN2C(=O)[C@@H](NC(=O)COCC(F)CCOc2ccc(-c3ncc(N4C(=S)N(c5ccc(C#N)c(C(F)(F)F)c5F)C(=O)C4(C)C)cc3F)c(C(F)(F)F)c2)C(C)(C)C)cc1 (stereo partly shown) [Compound A166] | 144 nM
Cc1ncsc1-c1ccc(CNC(=O)[C@@H]2C[C@@H](O)CN2C(=O)[C@@H](NC(=O)COCCC(F)(F)COc2ccc(-c3ncc(N4C(=S)N(c5ccc(C#N)c(C(F)(F)F)c5F)C(=O)C4(C)C)cc3F)c(C(F)(F)F)c2)C(C)(C)C)cc1 [Compound A167] | 204 nM
Cc1ncsc1-c1ccc(CNC(=O)[C@@H]2C[C@@H](O)CN2C(=O)[C@@H](NC(=O)COCC(F)(F)CCOc2ccc(-c3ncc(N4C(=S)N(c5ccc(C#N)c(C(F)(F)F)c5F)C(=O)C4(C)C)cc3F)c(C(F)(F)F)c2)C(C)(C)C)cc1 [Compound A168] | 159 nM
Cc1ncsc1-c1ccc(CNC(=O)[C@@H]2C[C@@H](O)CN2C(=O)[C@@H](NC(=O)COCC(F)C(F)COc2ccc(-c3ccc(N4C(=S)N(c5ccc(C#N)c(C(F)(F)F)c5F)C(=O)C4(C)C)cn3)cc2)C(C)(C)C)cc1 (stereo partly shown) [Compound A169] | 92.6 nM
Cc1ncsc1-c1ccc(CNC(=O)[C@@H]2C[C@@H](O)CN2C(=O)[C@@H](NC(=O)COCCCCNC(=O)/C=C/c2ccc(N3C(=S)N(c4ccc(C#N)c(C(F)(F)F)c4F)C(=O)C3(C)C)cn2)C(C)(C)C)cc1 [Compound A170] | 946 nM
Cc1ncsc1-c1ccc(CNC(=O)[C@@H]2C[C@@H](O)CN2C(=O)[C@@H](NC(=O)COCC(F)CCOc2ccc(-c3ccc(N4C(=S)N(c5ccc(C#N)c(C(F)(F)F)c5F)C(=O)C4(C)C)cn3)cc2)C(C)(C)C)cc1 (stereo partly shown) [Compound A171] | 80.2 nM
Cc1cc(C(C(=O)N2C[C@H](O)C[C@H]2C(=O)N[C@@H](CC(=O)NCCCOc2ccc(-c3ncc(N4C(=S)N(c5ccc(C#N)c(C(F)(F)F)c5F)C(=O)C4(C)C)cc3F)cc2F)c2ccc(-c3scnc3C)cc2)C(C)C)on1 (stereo partly shown) [Compound A172] | 170 nM
Cc1cc(C(C(=O)N2C[C@H](O)C[C@H]2C(=O)N[C@@H](CC(=O)N2CCC(C#Cc3ccc(N4C(=S)N(c5ccc(C#N)c(C(F)(F)F)c5F)C(=O)C4(C)C)cn3)CC2)c2ccc(-c3scnc3C)cc2)C(C)C)on1 (stereo partly shown) [Compound A173] | 78.1 nM
Cc1ncsc1-c1ccc(CNC(=O)[C@@H]2C[C@@H](O)CN2C(=O)[C@@H](NC(=O)COCC(F)(F)CCOc2ccc(-c3ccc(N4C(=S)N(c5ccc(C#N)c(C(F)(F)F)c5F)C(=O)C4(C)C)cn3)cc2)C(C)(C)C)cc1 [Compound A175] | 123 nM
Cc1cc(C(C(=O)N2C[C@H](O)C[C@H]2C(=O)N[C@@H](CC(=O)N2CCC(C#Cc3ccc(N4C(=S)N(c5ccc(C#N)c(C(F)(F)F)c5F)C(=O)C4(C)C)cc3)CC2)c2ccc(-c3scnc3C)cc2)C(C)C)on1 (stereo partly shown) [Compound A176] | 62.1 nM
Cc1cc(C(C(=O)N2C[C@H](O)C[C@H]2C(=O)N[C@@H](CC(=O)NCCCCCCOc2ccc(-c3ncc(N4C(=S)N(c5ccc(C#N)c(C(F)(F)F)c5F)C(=O)C4(C)C)cc3F)cc2F)c2ccc(-c3scnc3C)cc2)C(C)C)on1 (stereo partly shown) [Compound A177] | 253 nM
Cc1cc(C(C(=O)N2C[C@H](O)C[C@H]2C(=O)N[C@@H](CC(=O)N2CCC(Oc3ccc(-c4ncc(N5C(=S)N(c6ccc(C#N)c(C(F)(F)F)c6F)C(=O)C5(C)C)cc4F)cc3F)CC2)c2ccc(-c3scnc3C)cc2)C(C)C)on1 (stereo partly shown) [Compound A178] | 90.5 nM

Structure (SMILES) | DC50
CC1(C)C(=O)N(c2ccc(C#N)c(C(F)(F)F)c2F)C(=S)N1c1cnc(-c2ccc(OC3CCN(C(=O)COc4ccc5c(c4)C(=O)N(C4CCC(=O)NC4=O)C5=O)CC3)cc2C(F)(F)F)c(F)c1 (stereo not shown) [Compound A180] | 840 nM
Cc1cc(C(C(=O)N2C[C@H](O)C[C@H]2C(=O)N[C@@H](CC(=O)N2CCC(Oc3ccc(-c4ncc(N5C(=S)N(c6ccc(C#N)c(C(F)(F)F)c6F)C(=O)C5(C)C)cc4F)c(C(F)(F)F)c3)CC2)c2ccc(-c3scnc3C)cc2)C(C)C)on1 (stereo partly shown) [Compound A183] | 151 nM
Cc1cc(C(C(=O)N2C[C@H](O)C[C@H]2C(=O)N[C@@H](CC(=O)NCCN2CCC(C#Cc3ccc(N4C(=S)N(c5ccc(C#N)c(C(F)(F)F)c5F)C(=O)C4(C)C)cc3)CC2)c2ccc(-c3scnc3C)cc2)C(C)C)on1 (stereo partly shown) [Compound A184] | 370 nM
COc1c(C#N)ccc(N2C(=O)C(C)(C)N(c3ccc(-c4ccc(OCCCCOCC(=O)N[C@H](C(=O)N5C[C@H](O)C[C@H]5C(=O)NCc5ccc(-c6scnc6C)cc5)C(C)(C)C)cc4)nc3)C2=S)c1F [Compound A185] | 49.8 nM
Cc1cc(C(C(=O)N2C[C@H](O)C[C@H]2C(=O)N[C@@H](CC(=O)NCCN2CCC(Oc3ccc(-c4ncc(N5C(=S)N(c6ccc(C#N)c(C(F)(F)F)c6F)C(=O)C5(C)C)cc4F)cc3F)CC2)c2ccc(-c3scnc3C)cc2)C(C)C)on1 (stereo partly shown) [Compound A186] | 87 nM
CC1(C)C(=O)N(c2ccc(C#N)c(C(F)(F)F)c2F)C(=S)N1c1cnc(-c2cc(F)c(OC3CCN(C(=O)COc4ccc5c(c4)C(=O)N(C4CCC(=O)NC4=O)C5=O)CC3)c(F)c2)c(F)c1 (stereo not shown) [Compound A189] | 329 nM
CC1(C)C(=O)N(c2ccc(C#N)c(C(F)(F)F)c2F)C(=S)N1c1cnc(-c2cc(F)c(OC3CCN(C(=O)COc4cccc5c4C(=O)N(C4CCC(=O)NC4=O)C5=O)CC3)c(F)c2)c(F)c1 (stereo not shown) [Compound A191] | 162 nM
COc1c(C#N)ccc(N2C(=O)C(C)(C)N(c3cnc(-c4ccc(OC5CCN(C(=O)COc6ccc7c(c6)C(=O)N(C6CCC(=O)NC6=O)C7=O)CC5)cc4F)c(F)c3)C2=S)c1F (stereo not shown) [Compound A194] | 246 nM
COc1c(C#N)ccc(N2C(=O)C(C)(C)N(c3cnc(-c4ccc(OC5CCN(C(=O)COc6cccc7c6C(=O)N(C6CCC(=O)NC6=O)C7=O)CC5)cc4F)c(F)c3)C2=S)c1F (stereo not shown) [Compound A195] | 404 nM
COc1c(C#N)ccc(N2C(=O)C(C)(C)N(c3cnc(-c4ccc(OCCCCOCC(=O)N[C@H](C(=O)N5C[C@H](O)C[C@H]5C(=O)NCc5ccc(-c6scnc6C)cc5)C(C)(C)C)cc4C(F)(F)F)c(F)c3)C2=S)c1F [Compound A196] | 39 nM
COc1c(C#N)ccc(N2C(=O)C(C)(C)N(c3cnc(-c4ccc(OCCNC(=O)COc5ccc6c(c5)C(=O)N(C5CCC(=O)NC5=O)C6=O)c(F)c4)c(F)c3)C2=S)c1F (stereo not shown) [Compound A197] | 435 nM
Cc1ncsc1-c1c[nH]c([C@@H]2C[C@@H](O)CN2C(=O)[C@@H](NC(=O)COCCCCOc2ccc(-c3ccc(N4C(=S)N(c5ccc(C#N)c(C(F)(F)F)c5F)C(=O)C4(C)C)cn3)cc2)C(C)(C)C)n1 [Compound A198] | 42.8 nM
CC(C)(C)[C@H](NC(=O)COCCCCOc1ccc(-c2ncc(N3C(=S)N(c4ccc(C#N)c(C(F)(F)F)c4F)C(=O)C3(C)C)cc2F)c(C(F)(F)F)c1)C(=O)N1C[C@H](O)C[C@H]1c1nc(-c2ccccc2)c[nH]1 [Compound A202] | 661 nM
CC(C)(C)[C@H](NC(=O)COCCCCOc1ccc(-c2ccc(N3C(=S)N(c4ccc(C#N)c(C(F)(F)F)c4F)C(=O)C3(C)C)cn2)cc1)C(=O)N1C[C@H](O)C[C@H]1c1nc(-c2cncs2)c[nH]1 [Compound A203] | 71.9 nM
CC(C)(C)[C@H](NC(=O)COCCCCOc1ccc(-c2ncc(N3C(=S)N(c4ccc(C#N)c(C(F)(F)F)c4F)C(=O)C3(C)C)cc2F)c(C(F)(F)F)c1)C(=O)N1C[C@H](O)C[C@H]1c1nc(-c2cncs2)c[nH]1 [Compound A204] | 36.4 nM
